# Test results taken from US20220370493A1, “METHODS AND COMPOSITIONS FOR GENERATING NITRIC OXIDE AND USES THEREOF” (THIRTY HOLDINGS LIMITED, priority 2019, published 2022).
# Key:
# [1] = system: SARS-CoV-2 clinical isolate; assay: SARS-CoV-2 virus yield reduction assay in Vero E6 cells; assay type: cell-based
# Protocol: SARS-CoV-2 clinical isolate.
# At time 0 hr, Vero E6 cells were infected with virus in presence of the formulation or controls and incubated for 1 hour. After this incubation period the inoculum was removed and the cells were washed. Fresh formulation or controls were then added to the washed cells. At 24 hours post infection, Vero E6 cell supernatants were harvested and titrated, and the virus titration was incubated for 6 days prior to readout to determine any virus yield reduction. Separate tests were performed at four MOIs including 3.0 and 0.3, although only those two MOIs were titrated. The readout was by crystal violet (cell monolayer) staining, followed by CPE scoring.
SMILES,"SARS-CoV-2 titre ([1]; FIG. 33, Run 1, MOI 3.0, 24 hours)","SARS-CoV-2 titre ([1]; FIG. 34, Run 2, MOI 3.0 and MOI 0.3, 48 hours)","in vitro antiviral action against SARS-CoV-2 ([1]; FIGS. 33 and 34, MOI 3.0 and 0.3)",cytotoxicity on the LDH assay (Vero E6 cells)
"CCN(CC)CCCC(C)Nc1ccnc2cc(Cl)ccc12 (stereo not shown) [chloroquine, Chloroquine phosphate]",limit of detection,limit of detection,–,–
"O=C(O)CC(O)(CC(=O)O)C(=O)O [citric acid pH 5.8, citric acid]",–,–,high in vitro antiviral action,low cytotoxicity
